Data reported in patent US10849893B2 (Athenex HK Innovative Limited, priority 2018, dated 2020).
Several values for one entry are separate records, joined by “and”; a condition that tells them apart may be missing. Identical values can stand only once. Like-named read-outs stand apart in the source and are kept apart here.

How the values were obtained:
[1] = parameters: Dose Normalized AUC: unit not given beside the values; conditions: cited from earlier work
[2] = Two phase 1 studies of docetaxel capsules administered orally in combination with HM30181A; assay type: in vivo, human
[3] = 75 mg/m^2 over 28 days, monotherapy schedule for mHRPC; cited from earlier work
[4] = for Reported half-life: individual values, sampling to 168 h, LLOQ 0.2 ng/mL
Experimental: A 2-part study was conducted in subjects with solid tumors (“Study 2”). […] The dose levels increased to 75 mg/m^2, 150 mg/m^2, 225 mg/m^2, 300 mg/m^2, 375 mg/m^2, and 400 mg/m^2. In the second part of this study, half of the group starting at a selected dose from stage 1, was given over two consecutive days every three weeks. A total of 15 (n=40) subjects enrolled in this study.
All subject PK data within the dataset were analyzed using Phoenix 8.0. […] Individual time points for the terminal slope were automatically selected by the software, and linear up—log down interpolation calculation method was used for the analysis. Individual BLQ samples were set to 0.00 ng/ml for noncompartmental analysis unless the PK sample occurred between two PK samples above the limit of quantification, in which case the PK sample was set to missing. For the calculation of summary statistics and mean concentration figures, all BLQ samples were set to 0.00 ng/ml.

[5] = IV 85 mg/m^2, infusion 1.61 (0.81) h, n = 6
[6] = IV 90 mg/m^2, infusion 24 h, n = 5
[7] = IV 100 mg/m^2, infusion 2.03 (0.09) h, n = 4
[8] = IV 115 mg/m^2, infusion 1.84 (0.28) h, n = 4
[9] = oral 35 mg/m^2 with Compound A, Mean, N=4
[10] = oral 35 mg/m^2 with Compound A, individual subjects
[11] = oral 75 mg/m^2 with Compound A, Mean, N=3
[12] = oral 75 mg/m^2 with Compound A, individual subjects
[13] = oral 75 mg/m^2 with Compound A, individual subjects, listed as Docetaxel
[14] = oral 150 mg/m^2 with Compound A, individual subjects
[15] = oral 225 mg/m^2 with Compound A, Mean, N=3
[16] = oral 225 mg/m^2 with Compound A, individual subjects
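Throughout, for AUC % Extrapobs: noncompartmental pharmacokinetic analysis in subjects with solid tumors, using linear-up log-down interpolation, with terminal slope time points picked automatically by the software.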
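Throughout, for Average Time above Target (0 to last time point measured above 4 ng/ml): noncompartmental pharmacokinetic analysis in subjects with solid tumors, using linear-up log-down interpolation, with terminal slope time points picked automatically by the software.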
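Throughout, for Reported half-life: noncompartmental pharmacokinetic analysis in subjects with solid tumors, using linear-up log-down interpolation, with terminal slope time points picked automatically by the software.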
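Throughout, for docetaxel plasma concentration vs in vitro target IC50 of 5 nM (4 ng/mL): noncompartmental pharmacokinetic analysis in subjects with solid tumors, using linear-up log-down interpolation, with terminal slope time points picked automatically by the software.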

CC(=O)O[C@@]12CO[C@@H]1C[C@H](O)[C@@]1(C)C(=O)[C@H](O)C3=C(C)[C@@H](OC(=O)[C@H](O)[C@@H](NC(=O)OC(C)(C)C)c4ccccc4)C[C@@](O)([C@@H](OC(=O)c4ccccc4)[C@H]21)C3(C)C [docetaxel, (2aR,4S,4aS,6R,9S,11S,12S,12aR,12b S)-12b-acetoxy-9-(((2R,3S)-3-((tert-butoxycarbonyl)amino)-2-hydroxy-3-phenylpropanoyl)oxy)-4,6,11-trihydroxy-4a,8,13,13-tetramethyl-5-oxo-2a,3,4,4a,5,6,9,10,11,12,12a, 12b-dodecahydro-1H-7,11-methanocyclodeca[3,4]benzo[1,2-b]oxet-12-yl benzoate]
Dose Normalized AUC ([1]; IV 70 mg/m^2, infusion 24 h, n = 3): 49.57
AUC0-24 [1, 5]: 4100 ng·h/mL
Cmax [1, 5]: 2420 (920) ng/ml
Dose Normalized AUC [1, 5]: 48.24
t1/2 γ [1, 5]: 13.6 h
AUC0-24 [1, 6]: 7810 ng·h/mL
Dose Normalized AUC [1, 6]: 86.78
AUC0-24 [1, 7]: 5930 ng·h/mL
Cmax [1, 7]: 2410 (250) ng/ml
Dose Normalized AUC [1, 7]: 59.30
t1/2 γ [1, 7]: 18.5 h
AUC0-24 [1, 8]: 5190 ng·h/mL
Cmax [1, 8]: 2680 (930) ng/ml
Dose Normalized AUC [1, 8]: 45.13
t1/2 γ [1, 8]: 9.6 h
AUC ([2]; human, plasma, iv, 75 mg/m2, IV 75 mg/m^2): 2420 ng·h/mL
AUC ([2]; human, plasma, po, oral 35 mg/m^2 with HM30181A 15 mg): 248 ng·h/mL
AUC ([2]; human, plasma, po, oral 75 mg/m^2 with HM30181A 15 mg): 692 ng·h/mL
AUC ([2]; human, plasma, po, oral 150 mg/m^2 with HM30181A 15 mg): 888 ng·h/mL
AUC ([2]; human, plasma, po, oral 225 mg/m^2 with HM30181A 15 mg): 1400 ng·h/mL
bioavailability ([2]; human, plasma, oral 75 mg/m^2 with HM30181A 15 mg, read-out: Individual F %): 20 to 31%
Tmax ([2]; human, plasma, oral capsules in combination with HM30181A): 3 to 4 h
half-life ([2]; human, plasma, oral capsules in combination with HM30181A, read-out: terminal phase half-life (converted)): ~56 h
Cmax as % of that observed after IV administration ([2]; oral with HM30181A vs IV): 9.5-13%
target AUC [3]: 3410 ± 980 ng·h/mL
docetaxel plasma concentration vs in vitro target IC50 of 5 nM (4 ng/mL) ([4]; individuals administered 35 or 75 mg/m^2 oral docetaxel): > 4 ng/mL
Reported half-life ([4]; oral 35 mg/m^2): 35 mg/m^2: 3.4 h, and 19.1 h and 65.3 h
Average Time above Target (0 to last time point measured above 4 ng/ml) ([4]; oral 35 mg/m^2 SD): 7.5 h
Dose Normalized AUC ([4]; oral 35 mg/m^2 with Compound A): 39.97
AUC % Extrapobs [4, 9]: 7.51%
Tmax [4, 9]: 1.50 h
AUC0-12 [4, 10]: 145 ng·h/mL and 39.8 ng·h/mL and 198 ng·h/mL and 353 ng·h/mL
AUC0-24 [4, 10]: 178 ng·h/mL and 46.1 ng·h/mL and 227 ng·h/mL and 392 ng·h/mL
AUC0-48 [4, 10]: 218 ng·h/mL and 46.1 ng·h/mL and 257 ng·h/mL and 440 ng·h/mL
AUC % Extrapobs [4, 10]: 7.76% and 11.4% and 3.39% and 7.45%
AUCINF—obs [4, 10]: 259 ng·h/mL and 44.9 ng·h/mL and 279 ng·h/mL and 599 ng·h/mL
Cmax [4, 10]: 38.0 ng/mL and 73.0 ng/mL and 157 ng/mL and 8.59 ng/mL
Tmax [4, 10]: 2.00 h and 1.00 h
t1/2 [4, 10]: 22.8 h and 3.40 h and 19.1 h and 65.3 h
AUC0-24 ([4]; oral 35 mg/m^2 with Compound A, individual subjects by cancer diagnosis): 170 to 392 ng·h/mL
AUC0-24 ([4]; oral 35 mg/m^2 with Compound A, individual subjects by cancer diagnosis, listed as Docetaxel): 170 ng·h/mL and 227 ng·h/mL and 392 ng·h/mL
Reported half-life ([4]; oral 75 mg/m^2): 62.4 h and 45.8 h
Average Time above Target (0 to last time point measured above 4 ng/ml) ([4]; oral 75 mg/m^2 SD): 21.5 h
Dose Normalized AUC ([4]; oral 75 mg/m^2 with Compound A): 38.23
AUC0-12 [4, 11]: 512 ng·h/mL
AUC0-24 [4, 11]: 598 ng·h/mL
AUC % Extrapobs [4, 11]: 3.89%
Tmax [4, 11]: 2.00 h
Cmax [4, 12]: 81.6 to 190 ng/mL
Tmax [4, 12]: 2.00 h
AUC0-24 ([4]; oral 75 mg/m^2 with Compound A, individual subjects by cancer diagnosis): 304 to 1030 ng·h/mL
AUC0-24 ([4]; oral 75 mg/m^2 with Compound A, individual subjects by cancer diagnosis, listed as Docetaxel): 461 ng·h/mL and 304 ng·h/mL and 1030 ng·h/mL
AUC0-12 [4, 13]: 390 ng·h/mL and 270 ng·h/mL and 875 ng·h/mL
AUC0-24 [4, 13]: 461 ng·h/mL and 304 ng·h/mL and 1030 ng·h/mL
AUC0-48 [4, 13]: 543 ng·h/mL and 334 ng·h/mL and 1150 ng·h/mL
AUC % Extrapobs [4, 13]: 4.31% and 4.87% and 2.50%
AUCINF—obs [4, 13]: 690 ng·h/mL and 409 ng·h/mL and 1350 ng·h/mL
Cmax [4, 13]: 165 ng/mL and 81.6 ng/mL and 190 ng/mL and 270 ng/mL
t1/2 [4, 13]: 62.1 h and 45.8 h
Reported half-life ([4]; oral 150 mg/m^2): 53.3 h and 63.3 h
Average Time above Target (0 to last time point measured above 4 ng/ml) ([4]; oral 150 mg/m^2 SD): 15.5 h
Dose Normalized AUC ([4]; oral 150 mg/m^2 with Compound A): 26.70
AUC0-12 [4, 14]: 898 ng·h/mL and 650 ng·h/mL
AUC0-24 [4, 14]: 1050 ng·h/mL and 720 ng·h/mL and 490 ng·h/mL
AUC0-48 [4, 14]: 1150 ng·h/mL and 775 ng·h/mL and 538 ng·h/mL
AUC % Extrapobs [4, 14]: 5.59% and 2.53% and 5.32%
AUCINF—obs [4, 14]: 1380 ng·h/mL and 876 ng·h/mL and 673 ng·h/mL
Cmax [4, 14]: 136 ng/mL and 112 ng/mL
Tmax [4, 14]: 2.00 h and 4.00 h
t1/2 [4, 14]: 63.3 h
AUC0-24 ([4]; oral 150 mg/m^2 with Compound A, individual subjects by cancer diagnosis): 490 to 1050 ng·h/mL
AUC0-24 ([4]; oral 150 mg/m^2 with Compound A, individual subjects by cancer diagnosis, listed as Docetaxel): 1050 ng·h/mL and 720 ng·h/mL and 490 ng·h/mL
AUC0-12 [4, 15]: 618 ng·h/mL
AUC % Extrapobs [4, 15]: 4.93%
Cmax [4, 15]: 114 ng/mL
Tmax [4, 15]: 1.00 h
AUC0-12 [4, 16]: 835 ng·h/mL and 380 ng·h/mL and 637 ng·h/mL
AUC0-24 [4, 16]: 416 ng·h/mL and 974 ng·h/mL
AUC0-48 [4, 16]: 1100 ng·h/mL and 443 ng·h/mL and 1200 ng·h/mL
AUC % Extrapobs [4, 16]: 6.48% and 3.06% and 5.26%
AUCINF—obs [4, 16]: 1390 ng·h/mL and 517 ng·h/mL and 1650 ng·h/mL
Cmax [4, 16]: 139 ng/mL and 84.7 ng/mL
Tmax [4, 16]: 2.00 h
t1/2 [4, 16]: 46.1 h
